Measured values published in PMC8355244, “A fragment-based approach identifies an allosteric pocket that impacts malate dehydrogenase activity” (Communications Biology, 2021).
Like-named read-outs stand apart in the source and are kept apart here.

Biological target: T1, WT PfMDH (Plasmodium falciparum, UniProt Q6VVP7)
T1 construct: The full-length WT PfMDH gene was cloned into pETM-13; made in house; host or cells: E. coli Rosetta 2 (DE3) pLysS
Experiment: Activity screening of 4DT / 4-phenylthiazol-2-amine derivatives (oxidation of malate, absorbance at 340 nm)
Type: biochemical
Details: for inhibition at 500 µM: Dunnett's multiple comparisons test, read-out: Mean Diff. (positive control vs. compound); for Slope repl1 / Slope repl2: linear regression slope of absorbance 340 nm vs time; for Slope normalized repl1: slope relative to control = 1, replicate 1; for Slope normalized repl2: slope relative to control = 1, replicate 2
Description: The oxidation of malate to oxaloacetate was assayed spectrophotometrically in flat-bottomed Corning 96-well microplates in a total volume of 250.0 µl in 50 mM glycine buffer pH 10.2[24] with an additional 400 mM NaCl for protein stability. The increase of absorbance at 340 nm was recorded in kinetic mode using a Tecan Spark multimode microplate reader at 298 K. A mastermix of 50 mM NAD+ and 44 μM PfMDH was used for both the screening and kinetics experiments. The final concentration of protein and cofactor were […], respectively. Positive control groups were set (absence of compound) in the same plate as the treated group. The absorbance from the background noise was subtracted from the data and then a linear regression model was employed in order to get the line slope from the first 5 min of the reaction. The percentage of enzymatic activity has been calculated as described by Eq. (1)1 enzymeactivity(%)=slopetreated/slopepositivecontrol*100
1.3 µL of derivatives of 4-phenylthiazol-2-amine in 100% DMSO were mixed with 237.7 µL of a mastermix of WT PfMDH previously incubated with NAD+. The final compound concentration used in this screening was 500 µM in the presence of 0.5% (v/v) DMSO. The microplate was sealed with silver foil for 1-h incubation at 25–35 °C. Finally, reactions in both the samples and control wells were started upon the addition of 13.0 µL of 5 mM malate). At the end of the experiments, the reaction of the plate was spectrophotometrically assayed at 600 nm in order to identify turbidity due to the low solubility of the compound. All measurements were performed in duplicate.

[1] = 500 µM compound, Dunnett test details, positive control mean 100, n 2, read-out: Mean 2 (mean % enzymatic activity of treated group)
[2] = 500 µM compound, control 100%, replicate 1, read-out: % enzymatic activity repl1
[3] = 500 µM compound, control 100%, replicate 2, read-out: % enzymatic activity repl2

T1 sequence (Q6VVP7 entry or part of it): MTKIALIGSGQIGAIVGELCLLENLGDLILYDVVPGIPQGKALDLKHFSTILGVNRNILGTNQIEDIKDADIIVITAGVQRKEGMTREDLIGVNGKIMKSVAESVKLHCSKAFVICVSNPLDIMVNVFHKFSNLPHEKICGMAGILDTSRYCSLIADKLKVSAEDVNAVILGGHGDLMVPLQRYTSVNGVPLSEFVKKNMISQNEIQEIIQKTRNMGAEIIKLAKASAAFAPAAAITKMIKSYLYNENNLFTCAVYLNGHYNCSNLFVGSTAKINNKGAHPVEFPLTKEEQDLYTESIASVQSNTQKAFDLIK

| Structure (SMILES) | remaining activity at 500 µM [1] | inhibition at 500 µM (500 µM compound) | remaining activity at 500 µM [2] | remaining activity at 500 µM [3] | Slope repl1 (500 µM compound, replicate 1) | Slope repl2 (500 µM compound, replicate 2) | Slope normalized repl1 (500 µM compound) | Slope normalized repl2 (500 µM compound) | remaining activity at 500 µM (read-out: enzyme activity) |
| --- | --- | --- | --- | --- | --- | --- | --- | --- | --- |
| CC(C)(C)OC(=O)CNC(=O)c1cc(-c2cccs2)on1 [4b] | 21% | 79.5% | 22% | 19% | 0.007266 | 0.006583 | 0.2181 | 0.1879 | 20% |
| NCc1ccc(-c2csnn2)cc1 [2b] | 65% | 35% | 83% | 47% | 0.02772 | 0.01654 | 0.8322 | 0.472 | 65% |
| Nc1nc(-c2ccc(Cl)c(Cl)c2)cs1 [7a] | 24% | 76.5% | 26% | 21% | 0.008711 | 0.007289 | 0.2615 | 0.208 | 23% |
